From patent US20170190671A1, “BIS(ARYL)CATECHOL DERIVATIVES AS HERBICIDES” (E I DU PONT DE NEMOURS AND COMPANY, priority 2014, published 2017)

How the values were obtained:
Assay type in all cases: in vivo
[1] = test system: yellow nutsedge (Cyperus esculentus); assay: Test C preemergence; settings: Cyperus, pre-emergence, 336 h, scale 0 to 100, read-out: Plant response rating, Nutsedge, Yellow
Method in brief: (§1)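 Greenhouse test; preemergence to seeds in loam/sand soil, or postemergence spray to 2-18 cm, 1- to 4-leaf plants in peat/vermiculite medium; compound in non-phytotoxic solvent plus surfactant. Visual rating vs controls at 13-15 d, 0 = no effect, 100 = complete control.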

[2] = test system: oilseed rape (Brassica napus); assay: Test C preemergence; settings: Brassica napus, pre-emergence, scale 0 to 100, read-out: Plant response rating, Oilseed Rape
Method in brief: as §1

[3] = test system: blackgrass (Alopecurus myosuroides); assay: Test C preemergence; settings: Alopecurus myosuroides, pre-emergence, 336 h, scale 0 to 100, read-out: Plant response rating, Blackgrass
Method in brief: as §1

[4] = test system: galium (catchweed bedstraw, Galium aparine); assay: Test C postemergence; settings: Galium, post-emergence, 336 h, Postemergence, scale 0 to 100, read-out: Plant response rating, Galium
Method in brief: as §1

[5] = test system: large (Lg) crabgrass (Digitaria sanguinalis); assay: Test C postemergence; settings: Digitaria sanguinalis, post-emergence, 336 h, Postemergence, scale 0 to 100, read-out: Plant response rating, Crabgrass, Large
Method in brief: as §1

soybean (Glycine max) = assay: Test C postemergence; settings: Glycine max, post-emergence, Postemergence, scale 0 to 100, read-out: Plant response rating, Soybean
Method in brief: as §1

[6] = test system: chickweed (common chickweed, Stellaria media); assay: Test C postemergence; settings: Stellaria media, post-emergence, Postemergence, scale 0 to 100, read-out: Plant response rating, Chickweed
Method in brief: as §1

[7] = test system: velvetleaf (Abutilon theophrasti); assay: Test C postemergence; settings: Abutilon theophrasti, post-emergence, Postemergence, scale 0 to 100, read-out: Plant response rating, Velvetleaf
Method in brief: as §1

wild oat (Avena fatua) = assay: Test C postemergence; settings: Avena fatua, post-emergence, Postemergence, scale 0 to 100, read-out: Plant response rating, Oat, Wild
Method in brief: as §1

[8] = test system: morningglory (Ipomoea coccinea); assay: Test C postemergence; settings: Ipomoea, post-emergence, 336 h, Postemergence, scale 0 to 100, read-out: Plant response rating, Morningglory
Method in brief: as §1

corn (Zea mays) = assay: Test C postemergence; settings: Zea mays, post-emergence, 336 h, Postemergence, scale 0 to 100
Method in brief: as §1

[9] = test system: ragweed (common ragweed, Ambrosia elatior); assay: Test C postemergence; settings: Ambrosia artemisiifolia, post-emergence, 336 h, Postemergence, scale 0 to 100, read-out: Plant response rating, Ragweed
Method in brief: as §1

[10] = test system: lambsquarters (Chenopodium album); assay: Test C postemergence; settings: Chenopodium album, post-emergence, 336 h, Postemergence, scale 0 to 100, read-out: Plant response rating, Lambsquarters
Method in brief: as §1

[11] = test system: giant foxtail (Setaria faberii); assay: Test C postemergence; settings: Setaria faberi, post-emergence, 336 h, Postemergence, scale 0 to 100, read-out: Plant response rating, Foxtail, Giant
Method in brief: as §1

[12] = test system: johnsongrass (Sorghum halepense); assay: Test C postemergence; settings: Sorghum halepense, post-emergence, 336 h, Postemergence, scale 0 to 100, read-out: Plant response rating, Johnsongrass
Method in brief: as §1

[13] = test system: yellow nutsedge (Cyperus esculentus); assay: Test C postemergence; settings: Cyperus, post-emergence, 336 h, Postemergence, scale 0 to 100, read-out: Plant response rating, Nutsedge, Yellow
Method in brief: as §1

kochia (Kochia scoparia) = assay: Test C postemergence; settings: Bassia scoparia, post-emergence, Postemergence, scale 0 to 100, read-out: Plant response rating, Kochia
Method in brief: as §1

[14] = test system: barnyardgrass (Echinochloa crus-galli); assay: Test C postemergence; settings: Echinochloa crus-galli, post-emergence, Postemergence, scale 0 to 100, read-out: Plant response rating, Barnyardgrass
Method in brief: as §1

[15] = test system: oilseed rape (Brassica napus); assay: Test C postemergence; settings: Brassica napus, post-emergence, Postemergence, scale 0 to 100, read-out: Plant response rating, Oilseed Rape
Method in brief: as §1

[16] = test system: winter wheat (Triticum aestivum); assay: Test C postemergence; settings: Triticum aestivum, post-emergence, 336 h, Postemergence, scale 0 to 100, read-out: Plant response rating, Wheat
Method in brief: as §1

[17] = test system: Italian ryegrass (Lolium multiflorum); assay: Test C postemergence; settings: Lolium multiflorum, post-emergence, 336 h, Postemergence, scale 0 to 100, read-out: Plant response rating, Ryegrass, Italian
Method in brief: as §1

[18] = test system: blackgrass (Alopecurus myosuroides); assay: Test C postemergence; settings: Alopecurus myosuroides, post-emergence, 336 h, Postemergence, scale 0 to 100, read-out: Plant response rating, Blackgrass
Method in brief: as §1

N#Cc1cccc(Oc2ncc(C(F)(F)F)cn2)c1Oc1ncc(Cl)cn1 [Compound 39, 2-[(5-chloro-2-pyrimidinyl)oxy]-3-[[5-(trifluoromethyl)-2-pyrimidinyl]oxy]-benzonitrile]
pest or weed control at 31 g/ha ([1]; 31 g ai/ha, preemergence): 20%
pest or weed control at 62 g/ha ([1]; 62 g ai/ha, preemergence): 85%
pest or weed control at 125 g/ha ([1]; 125 g ai/ha, preemergence): 85%
pest or weed control at 16 g/ha ([1]; Preemergence, 16 g ai/ha): 0%
plant injury at 31 g/ha ([2]; 31 g ai/ha, preemergence): 90%
plant injury at 62 g/ha ([2]; 62 g ai/ha, preemergence): 100%
plant injury at 125 g/ha ([2]; 125 g ai/ha, preemergence): 100%
plant injury at 16 g/ha ([2]; Preemergence, 16 g ai/ha): 80%
pest or weed control at 31 g/ha ([3]; 31 g ai/ha, preemergence): 50%
pest or weed control at 62 g/ha ([3]; 62 g ai/ha, preemergence): 90%
pest or weed control at 125 g/ha ([3]; 125 g ai/ha, preemergence): 90%
pest or weed control at 16 g/ha ([3]; Preemergence, 16 g ai/ha): 0%
pest or weed control at 16 g/ha ([4]; 16 g ai/ha): 60%
pest or weed control at 31 g/ha ([4]; 31 g ai/ha): 80%
pest or weed control at 62 g/ha ([4]; 62 g ai/ha): 80%
pest or weed control at 125 g/ha ([4]; 125 g ai/ha): 90%
pest or weed control at 16 g/ha ([5]; 16 g ai/ha): 5%
pest or weed control at 31 g/ha ([5]; 31 g ai/ha): 5%
pest or weed control at 62 g/ha ([5]; 62 g ai/ha): 10%
pest or weed control at 125 g/ha ([5]; 125 g ai/ha): 10%
plant injury at 31 g/ha (soybean (Glycine max); 31 g ai/ha): 60%
plant injury at 62 g/ha (soybean (Glycine max); 62 g ai/ha): 95%
plant injury at 125 g/ha (soybean (Glycine max); 125 g ai/ha): 70%
pest or weed control at 16 g/ha ([6]; 16 g ai/ha): 60%
pest or weed control at 31 g/ha ([6]; 31 g ai/ha): 60%
pest or weed control at 62 g/ha ([6]; 62 g ai/ha): 90%
pest or weed control at 125 g/ha ([6]; 125 g ai/ha): 90%
pest or weed control at 31 g/ha ([7]; 31 g ai/ha): 55%
pest or weed control at 62 g/ha ([7]; 62 g ai/ha): 60%
pest or weed control at 125 g/ha ([7]; 125 g ai/ha): 60%
pest or weed control at 31 g/ha (wild oat (Avena fatua); 31 g ai/ha): 5%
pest or weed control at 62 g/ha (wild oat (Avena fatua); 62 g ai/ha): 10%
pest or weed control at 125 g/ha (wild oat (Avena fatua); 125 g ai/ha): 15%
pest or weed control at 31 g/ha ([8]; 31 g ai/ha): 75%
pest or weed control at 62 g/ha ([8]; 62 g ai/ha): 90%
pest or weed control at 125 g/ha ([8]; 125 g ai/ha): 85%
Corn plant response rating (crop injury, 0 = no effect, 100 = complete kill) at 16 g/ha (corn (Zea mays); 16 g ai/ha): 5%
Corn plant response rating (crop injury, 0 = no effect, 100 = complete kill) at 31 g/ha (corn (Zea mays); 31 g ai/ha): 10%
Corn plant response rating (crop injury, 0 = no effect, 100 = complete kill) at 62 g/ha (corn (Zea mays); 62 g ai/ha): 10%
Corn plant response rating (crop injury, 0 = no effect, 100 = complete kill) at 125 g/ha (corn (Zea mays); 125 g ai/ha): 20%
pest or weed control at 31 g/ha ([9]; 31 g ai/ha): 65%
pest or weed control at 62 g/ha ([9]; 62 g ai/ha): 60%
pest or weed control at 125 g/ha ([9]; 125 g ai/ha): 85%
pest or weed control at 16 g/ha ([10]; 16 g ai/ha): 75%
pest or weed control at 31 g/ha ([10]; 31 g ai/ha): 70%
pest or weed control at 62 g/ha ([10]; 62 g ai/ha): 80%
pest or weed control at 125 g/ha ([10]; 125 g ai/ha): 85%
pest or weed control at 16 g/ha ([11]; 16 g ai/ha): 10%
pest or weed control at 31 g/ha ([11]; 31 g ai/ha): 10%
pest or weed control at 62 g/ha ([11]; 62 g ai/ha): 10%
pest or weed control at 125 g/ha ([11]; 125 g ai/ha): 20%
pest or weed control at 16 g/ha ([12]; 16 g ai/ha): 5%
pest or weed control at 31 g/ha ([12]; 31 g ai/ha): 15%
pest or weed control at 62 g/ha ([12]; 62 g ai/ha): 10%
pest or weed control at 125 g/ha ([12]; 125 g ai/ha): 10%
pest or weed control at 31 g/ha ([13]; 31 g ai/ha): 5%
pest or weed control at 62 g/ha ([13]; 62 g ai/ha): 5%
pest or weed control at 125 g/ha ([13]; 125 g ai/ha): 5%
pest or weed control at 16 g/ha (kochia (Kochia scoparia); 16 g ai/ha): 90%
pest or weed control at 31 g/ha (kochia (Kochia scoparia); 31 g ai/ha): 95%
pest or weed control at 62 g/ha (kochia (Kochia scoparia); 62 g ai/ha): 100%
pest or weed control at 125 g/ha (kochia (Kochia scoparia); 125 g ai/ha): 100%
pest or weed control at 16 g/ha ([14]; 16 g ai/ha): 5%
pest or weed control at 31 g/ha ([14]; 31 g ai/ha): 15%
pest or weed control at 62 g/ha ([14]; 62 g ai/ha): 15%
pest or weed control at 125 g/ha ([14]; 125 g ai/ha): 25%
plant injury at 31 g/ha ([15]; 31 g ai/ha): 5%
plant injury at 62 g/ha ([15]; 62 g ai/ha): 40%
plant injury at 125 g/ha ([15]; 125 g ai/ha): 40%
plant injury at 31 g/ha ([16]; 31 g ai/ha): 0%
plant injury at 62 g/ha ([16]; 62 g ai/ha): 5%
plant injury at 125 g/ha ([16]; 125 g ai/ha): 0%
pest or weed control at 31 g/ha ([17]; 31 g ai/ha): 0%
pest or weed control at 62 g/ha ([17]; 62 g ai/ha): 5%
pest or weed control at 125 g/ha ([17]; 125 g ai/ha): 10%
pest or weed control at 16 g/ha ([18]; 16 g ai/ha): 5%
pest or weed control at 31 g/ha ([18]; 31 g ai/ha): 10%
pest or weed control at 62 g/ha ([18]; 62 g ai/ha): 15%
pest or weed control at 125 g/ha ([18]; 125 g ai/ha): 30%
